Test results as given in patent US10851084B2, “Piperazine derivatives as TRPML modulators” (CalyGene Biotechnology, Inc., priority 2016, dated 2020).

Assays:
[1] = test system: TFEB; experiment: TFEB nuclear translocation assay; format: cell-based; conditions: HEK293 cells stably expressing GFP-TFEB; dose-dependent, FIG. 2
Procedure: TFEB is a transcription factor and master regulator of lysosome biogenesis and autophagy. TFEB activation is shown to induce cellular clearance in a variety of LSDs and common neurodegenerative diseases.
Intracellular TFEB localization is determined either by immunofluorescence in Hela cells or by fluorescent microscopy in Hela cells stably expressing TFEB-GFP. Detailed procedures are as follows.
Cells grown on cover slips were treated with TRPML1 agonist(s) or antagonist(s) for indicated time period and then fixed with 4% paraformaldehyde for 15 minutes at room temperature. For immunofluorescent detection of endogenous TFEB, cells were permeabilized with 0.3% Triton X-100, blocked with 1% bovine serum albumin (BSA) in phosphate buffered saline (PBS) and then immunostained with anti-TFEB antibody (1:200; Cell Signaling Technology) at 4° C. for overnight. The stained cells were then incubated with secondary antibodies conjugated to Alexa Fluor 568 or 488 (ThermoFisher) for 1 h, then 4′,6-diamidino-2-phenylindole (DAPI) for 15 minutes (to stain the cell nucleus) and mounted on glass slides with Fluoromount-G (Southern Biotech) for observation. […]
Average ratios of nuclear versus cytosolic TFEB fluorescence intensity (>50 randomly-selected cells per experiment) were determined with ImageJ software (NIH).

[2] = test system: HaCat cells; experiment: UV treatment and ROS staining; format: cell-based, human; conditions: 600 J/m^2 UV (254 nm), H2DCFDA, FIG. 3
Procedure: HaCat cells (a human keratinocyte cell line) at a confluency of around 50% were incubated with 20 µM H2DCFDA (Sigma) in the culture media without FBS at 37° C. for 30 min, and then washed twice with phosphate buffered saline (PBS, pH 7.4) before being exposed to UV. A CL-1000 UV Crosslinker (UVP) is used to shed 600 J/m^2 of UV light (254 nm) on the HaCat cells in all experiments. Fluorescent images were obtained right after UV exposure, via an Olympus IX73 microscopy (Olympus) and Metamorph software (Molecular Devices).

[3] = test system: ML1-4A; conditions: HEK293 cells stably or transiently expressing ML1-4A; cited from earlier work
[4] = test system: TRPML1; conditions: cited from earlier work
[5] = biological target: T1, TRPML2 (Homo sapiens, UniProt Q8IZK6); conditions: cited from earlier work
T1 sequence (Q8IZK6 1-566): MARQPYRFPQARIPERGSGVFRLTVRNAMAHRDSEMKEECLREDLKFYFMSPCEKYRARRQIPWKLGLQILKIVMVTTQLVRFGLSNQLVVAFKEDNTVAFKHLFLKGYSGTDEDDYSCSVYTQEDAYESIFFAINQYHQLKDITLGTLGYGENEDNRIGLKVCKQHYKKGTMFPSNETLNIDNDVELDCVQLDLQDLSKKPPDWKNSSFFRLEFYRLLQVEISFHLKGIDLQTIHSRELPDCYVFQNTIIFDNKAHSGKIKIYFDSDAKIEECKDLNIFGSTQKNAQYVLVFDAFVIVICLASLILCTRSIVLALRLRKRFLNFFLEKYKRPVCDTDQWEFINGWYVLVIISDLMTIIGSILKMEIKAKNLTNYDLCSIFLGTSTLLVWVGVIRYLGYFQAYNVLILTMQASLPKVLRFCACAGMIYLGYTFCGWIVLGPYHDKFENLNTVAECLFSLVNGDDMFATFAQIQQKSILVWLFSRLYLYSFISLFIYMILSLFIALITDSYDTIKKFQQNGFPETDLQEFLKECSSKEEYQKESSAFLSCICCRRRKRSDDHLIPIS

[6] = biological target: T2, TRPML3 (Homo sapiens, UniProt Q8TDD5); conditions: cited from earlier work
T2 sequence (Q8TDD5 1-553): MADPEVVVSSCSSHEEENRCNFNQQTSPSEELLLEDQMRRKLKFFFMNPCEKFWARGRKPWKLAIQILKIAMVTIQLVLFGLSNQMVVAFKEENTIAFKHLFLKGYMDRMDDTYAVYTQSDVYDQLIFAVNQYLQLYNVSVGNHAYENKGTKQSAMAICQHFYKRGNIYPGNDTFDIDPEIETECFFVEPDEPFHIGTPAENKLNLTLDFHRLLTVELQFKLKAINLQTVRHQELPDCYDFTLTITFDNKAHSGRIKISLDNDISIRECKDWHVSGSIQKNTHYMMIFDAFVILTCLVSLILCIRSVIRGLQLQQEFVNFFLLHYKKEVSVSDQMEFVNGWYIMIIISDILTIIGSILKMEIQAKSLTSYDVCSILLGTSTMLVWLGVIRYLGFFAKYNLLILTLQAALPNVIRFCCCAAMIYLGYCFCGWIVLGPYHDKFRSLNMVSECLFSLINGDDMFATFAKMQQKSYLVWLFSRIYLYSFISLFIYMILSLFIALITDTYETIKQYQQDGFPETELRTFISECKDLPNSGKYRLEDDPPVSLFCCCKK

[7] = test system: six other related channels; conditions: cited from earlier work
[8] = biological target: T3, endogenous whole-endolysosome TRPML-like current (IML-L) (Homo sapiens, UniProt Q9GZU1); conditions: wild-type (WT; ML1+/+) human fibroblasts; cited from earlier work
T3 construct: host or cells: endogenous in human fibroblasts (WT and ML4); also CHO, Cos-1, HEK293, skeletal muscle, pancreatic β and macrophage cells

[9] = test system: endogenous whole-endolysosome TRPML-like current (IML-L); conditions: cited from earlier work
[10] = test system: TRPMLs; conditions: cited from earlier work

T3 sequence (Q9GZU1 whole entry): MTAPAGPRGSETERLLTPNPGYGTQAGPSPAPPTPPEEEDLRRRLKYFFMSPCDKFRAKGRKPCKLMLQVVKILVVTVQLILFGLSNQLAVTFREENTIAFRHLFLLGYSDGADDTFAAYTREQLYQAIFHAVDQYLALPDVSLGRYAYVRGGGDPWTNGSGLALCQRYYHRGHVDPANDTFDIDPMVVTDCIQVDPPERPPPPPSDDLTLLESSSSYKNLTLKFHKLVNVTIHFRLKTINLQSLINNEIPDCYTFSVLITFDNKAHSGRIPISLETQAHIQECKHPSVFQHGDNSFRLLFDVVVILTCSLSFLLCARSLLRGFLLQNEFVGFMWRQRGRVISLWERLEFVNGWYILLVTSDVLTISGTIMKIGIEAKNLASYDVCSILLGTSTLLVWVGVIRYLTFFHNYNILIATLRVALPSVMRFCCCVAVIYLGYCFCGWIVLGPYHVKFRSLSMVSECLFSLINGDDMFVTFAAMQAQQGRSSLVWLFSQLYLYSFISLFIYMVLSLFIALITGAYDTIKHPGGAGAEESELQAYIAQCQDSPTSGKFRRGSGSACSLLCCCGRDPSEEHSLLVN

Row | Structure (SMILES) | TFEB-nuclear translocation (nuclear to cytosol ratio) [1] | UV induced ROS [2] | [Ca2+]cyt increases [3] | activation of whole-endolysosome IML1 compared with PI(3,5)P2 (1 μM) ([4]; ML-SA1 10 μM) | activation of whole-cell IML1-4A ([4]; whole-cell) | activation of whole-endolysosome IML1 ([4]; whole-endolysosome) | activation of whole-cell ITRPML2 [5] | activation of whole-cell ITRPML3 [6] | activation of six other related channels [7] | activation of whole-endolysosome IML-L [8] | activation of whole-endolysosome IML-L ([9]; ML4 (ML1−/−) human fibroblasts) | activation of endogenous whole-endolysosome IML-L ([9]; all mammalian cell types investigated (CHO, Cos-1, HEK293, skeletal muscle, pancreatic β, macrophage cells)) | concentration needed to effectively activate TRPMLs [10]
1 | CN(C)S(=O)(=O)c1ccc(S(=O)(=O)Nc2ccccc2N2CCN(c3ccc(Cl)cc3F)CC2)cc1 [Example 8, N1-[2-[4-(4-Chloro-2-fluorophenyl)-1-piperazinyl]phenyl]-N4,N4-dimethylbenzene-1,4-disulfonamide] | sufficient to induce TFEB-nuclear translocation | significantly reduced |  |  |  |  |  |  |  |  |  |  | 
2 | CC1CC(C)(C)N(C(=O)CN2C(=O)c3ccccc3C2=O)c2ccccc21 (stereo not shown) [ML-SA1] |  |  | significant | comparable | robustly activated | robustly activated | activated | activated | not | activated | not | activated | ~10 µM
